Values after ≈ are worked out from the molar mass of the structure shown.
Tests used:
[1] = system: A. baumannii DH-243; assay: Agar well-diffusion assay; format: cell-based; conditions: Acinetobacter baumannii, DH243; A. baumannii DH-243; 50 µL of 10 mM per well; read-out: Diameter of Inhibition Zones (AZOI)
Procedure: (§1) The synthesized compounds were initially screened for their in vitro antibacterial activity against the different Gram-positive and Gram-negative bacteria, tested using the agar well-diffusion assay. The turbidity of the bacterial suspensions was established to the 0.5 McFarland turbidity standard. The activity was performed on TS agar plates. The bacteria were spread on the surface of the agar plates, and 10 mm wells were screwed into the agar plates. The assay was performed under aseptic conditions. An aliquot of 50 µL of each tested compound (10 mM) was added to the wells, and the plates were incubated overnight at 37 °C. Both Erythromycin and Amikacin antibiotic disks were used as positive control, while DMSO solvent was used as a negative control in this study. The diameters of inhibition zones were measured and recorded in mm. A comparative study of the synthesized compounds was determined. The experiment was performed in triplicates.

[2] = system: E. coli DH-5987; assay: Agar well-diffusion assay; format: cell-based; conditions: Escherichia coli, DH5987, 50 µL of 10 mM per well, read-out: Diameter of Inhibition Zones (AZOI)
Procedure: as §1

[3] = system: E. faecalis DH-5478; assay: Agar well-diffusion assay; format: cell-based; conditions: Enterococcus faecalis, DH5478; E. faecalis DH-5478; 50 µL of 10 mM per well; read-out: Diameter of Inhibition Zones (AZOI)
Procedure: as §1

[4] = system: S. aureus DH-432; assay: Agar well-diffusion assay; format: cell-based; conditions: Staphylococcus aureus, DH432; S. aureus DH-432; 50 µL of 10 mM per well; read-out: Diameter of Inhibition Zones (AZOI)
Procedure: as §1

[5] = system: S. pyogenes DH-3467; assay: Agar well-diffusion assay; format: cell-based; conditions: Streptococcus pyogenes, DH3467; S. pyogenes DH-3467; 50 µL of 10 mM per well; read-out: Diameter of Inhibition Zones (AZOI)
Procedure: as §1

[6] = system: E. faecalis DH-5478; assay: Broth microdilution MIC/MBC; format: cell-based, Enterococcus faecalis; conditions: for MIC: Enterococcus faecalis, DH5478, 24 h, read-out: MIC (Mean ± SEM); for MBC/MIC: value in brackets
Procedure: (§2) The broth microdilution method was taken as a basis to detect the MICs of pyrazole compounds against tested clinical isolates, according to the Clinical Laboratory and Standards Institute guidelines. The broth cultures were used to prepare the bacterial inoculums, and the suspensions were adjusted to the standard 0.5 McFarland turbidity. Stock solutions of the synthesized pyrazoles were prepared in pure DMSO and further serially diluted with TS broth in the concentration range from 128 µg/mL to 0.0625 µg/mL. A well containing noninoculated TS broth, free of any antimicrobial agents, was also included to ensure the medium sterility, while Erythromycin and Amikacin served as positive controls. Bacterial growth was determined by adding 20 µL of 0.5% TTC (2,3,5-triphenyltetrazolium chloride) aqueous solution. […] All experiments were repeated three times. The bactericidal effect from each concentration of the pyrazole and pyrazolo[1,5-a]pyrimidine derivatives showing growth inhibition was further studied. For this study, a loopful of 5 µL was taken from each no-visible growth tube and streaked onto plates of TS agar.

[7] = system: S. pyogenes DH-3467; assay: Broth microdilution MIC/MBC; format: cell-based, Streptococcus pyogenes; conditions: for MIC: Streptococcus pyogenes, DH3467, 24 h, read-out: MIC (Mean ± SEM); for MBC/MIC: value in brackets
Procedure: as §2

[8] = system: E. coli DH-5987; assay: Broth microdilution MIC/MBC; format: cell-based, Escherichia coli; conditions: for MBC/MIC / MIC / MIC (Mean ± SEM): E. coli DH-5987; for MBC/MIC: value in brackets; for MIC / MBC: Escherichia coli, DH5987; for MIC / MIC (Mean ± SEM): 24 h; for MIC: read-out: MIC (Mean ± SEM); for MBC: E. coli
Procedure: as §2

[9] = system: Gram-negative isolates; assay: Broth microdilution MIC/MBC, summary; format: cell-based
Procedure: as §2

[10] = system: Gram-positive isolates; assay: Broth microdilution MIC/MBC, summary; format: cell-based
Procedure: as §2

[11] = system: tested isolates; assay: Broth microdilution MIC/MBC, summary; format: cell-based
Procedure: as §2

Structure (SMILES)	zone of inhibition at 10000 µM [1]	zone of inhibition at 10000 µM [2]	zone of inhibition at 10000 µM [3]	zone of inhibition at 10000 µM [4]	zone of inhibition at 10000 µM [5]	MIC [6]	MBC/MIC [6]	MIC [7]	MBC/MIC [7]	MBC/MIC [8]	MIC [8]	MIC [9]	MIC [10]	MIC ([11]; other isolates (not S. aureus, E. coli))	MIC ([11]; S. aureus, E. faecalis, and P. aeruginosa)	MIC (Mean ± SEM) [8]	MBC [8]	MBC [10]
CCOC(=O)c1ccc(N=Nc2c(N)n[nH]c2N)cc1 [Compound 3a, Ethyl 4-((3,5-diamino-1H-pyrazol-4-yl)diazenyl)benzoate]	29.3 mm	32 mm	30.6 mm	31.1 mm	31.5 mm	0.125 ± 0.1 µg/mL (≈ 0.456 µM)	0.5	0.125 ± 0.3 µg/mL (≈ 0.456 µM)	0.5	0.5	0.0625 ± 0.4 µg/mL (≈ 0.228 µM)	0.062 to 0.25 µg/mL (≈ 0.226 to 0.911 µM)	0.125 µg/mL (≈ 0.456 µM)					
CCOC(=O)c1ccc(N=Nc2c(N=Cc3ccc(N(C)C)cc3)n[nH]c2N)cc1 [Compound 5a, Ethyl 4-((5-amino-3-((4-(dimethylamino)benzylidene)amino)-1H-pyrazol-4-yl)diazenyl)benzoate]	28 mm	29.9 mm	28.2 mm	28.6 mm	28.9 mm	0.5 ± 0.2 µg/mL (≈ 1.23 µM)	0.5	0.5 ± 0.1 µg/mL (≈ 1.23 µM)	0.5	0.5	0.25 µg/mL (≈ 0.617 µM)			0.5 µg/mL (≈ 1.23 µM)				
CCOC(=O)c1ccc(N=Nc2c(N)nn3c(C)cc(C)nc23)cc1 [Compound 6, ethyl-4-((2-amino-5,7-dimethylpyrazolo[1,5-a]pyrimidin-3-yl)diazenyl)benzoate]	28.8 mm	31 mm	29.5 mm	29.5 mm	30.2 mm	0.375 ± 0.2 µg/mL (≈ 1.11 µM)	0.5	0.25 ± 0.3 µg/mL (≈ 0.739 µM)	0.5	0.5	0.25 ± 0.1 µg/mL (≈ 0.739 µM)				0.187 to 0.375 µg/mL (≈ 0.553 to 1.11 µM)			
CCOC(=O)c1ccc(N=Nc2c(N)nn3c(N)c(C#N)c(-c4ccc(N(C)C)cc4)nc23)cc1 [Compound 9a, Ethyl-4-((2,7-diamino-6-cyano-5-(4-(dimethylamino)phenyl)pyrazolo[1,5-a]pyrimidin-3-yl)diazenyl)benzoate]	28.4 mm	30.4 mm	28.7 mm	29.1 mm	29.3 mm	0.5 ± 0.1 µg/mL (≈ 1.06 µM)	0.5	0.25 ± 0.2 µg/mL (≈ 0.532 µM)	0.5	0.5	0.125 µg/mL (≈ 0.266 µM)		0.25 to 0.5 µg/mL (≈ 0.532 to 1.06 µM)			0.125 ± 0.1 µg/mL (≈ 0.266 µM)	0.0625 µg/mL (≈ 0.133 µM)	0.125 to 0.25 µg/mL (≈ 0.266 to 0.532 µM)
CCOC(=O)c1ccc(N=Nc2c(N)nn3c(O)c(C#N)c(-c4ccc(N(C)C)cc4)nc23)cc1 [Compound 10a, Ethyl-4-((2-amino-6-cyano-5-(4-(dimethylamino)phenyl)-7-hydroxypyrazolo[1,5-a]pyrimidin-3-yl)diazenyl)benzoate]	29.1 mm	31.5 mm	29.8 mm	30.6 mm	30.7 mm	0.187 ± 0.1 µg/mL (≈ 0.397 µM)	0.5	0.187 ± 0.2 µg/mL (≈ 0.397 µM)	0.5		0.125 µg/mL (≈ 0.266 µM)					0.125 ± 0.2 µg/mL (≈ 0.266 µM)	0.0625 µg/mL (≈ 0.133 µM)	

Reference: paper PMC9854762, “Antibiofilm and Anti-Quorum-Sensing Activities of Novel Pyrazole and Pyrazolo[1,5-a]pyrimidine Derivatives as Carbonic Anhydrase I and II Inhibitors: Design, Synthesis, Radiosterilization, and Molecular Docking Studies” (Antibiotics, 2023)
